Data as given in patent US5216142A, “Anti-virals” (Efamol Holdings plc, priority 1989, dated 1993).
Values after ≈ are worked out from the molar mass of the structure shown. “Also recorded” adds a separate entry of the source. Read-outs that look alike come from different tables or passages of the source.

Legend:
[1] = system: herpes simplex virus Type I (HSV I); experiment: Inhibition of virus replication (plaque assay, BHK-21 cells); type: cell-based, Type 1, Troisbel strain; details: for Inhibition of viral replication (in words): up to 100 mg/l; for log reduction at 0.1 µg/mL: 0.1 mg/l
Method: 1. Mono-layers of baby hamster kidney cells (BHK-21) are prepared in Petri dishes containing ETC medium (Eagle's minimal essential medium +10% tryptose phosphate broth +10% new born calf serum).
2. After incubation the medium is poured off to leave the layer of cells attached to the Petri dish. A solution containing virus, specifically herpes simplex virus Type I (HSV I) for example, in ETC medium is then added to the dish and incubated with intermittent rocking for one hour to allow the virus to adsorb to the cells of the mono-layer. Unadsorbed virus is then removed by pouring off the virus-containing medium and washing twice with new sterile medium. Then new medium is added to each Petri dish. At this stage various concentrations of drug can be added to the medium.
3. […] First the dishes are frozen to -70° C. and thawed to disrupt the mono-layer and break up the cells. Then the medium and the disrupted cells are transferred to bijou bottles and sonicated to break down the cells completely and to release all the virus particles the cells contain. The sonicated medium is then diluted with fresh sterile ETC medium to give concentrations of the original Petri dish fluid of 10^-2, 10^-4, 10^-6 and 10^-8.
4. The number of virus particles (plaque forming units) in the dilutions is then assayed. A standard number of BHK cells (usually 8×10^6) is added to 2 ml of the diluted solutions and incubated for one hour, with cautious, gentle shaking, and 8 ml of Eagle's minimal essential medium +2% new born calf serum + carboxymethyl cellulose is then added to the cell suspension. This medium has gelling properties which prevent spreading of the virus through the medium and which encourage the formation of discrete plaques in cell mono-layers. The medium from each dilution is then dispensed into Petri dishes and incubated for two to three days.
5. The number of plaques formed is then counted and the amount of active virus expressed as the number of plaque forming units (pfus) as follows. The medium is poured off and the cell mono-layer is fixed using 10% formol saline and stained with dilute carbol fuchsin. The number of plaques in each Petri dish is counted. Based on the dilutions, the number of plaque forming virus particles in the original solutions is calculated.
In the Table, the figures are the concentration of viral particles in pfu/ml present in the cells + medium at the end of the replication stage (3).

[2] = system: herpes simplex virus Type I; experiment: Inactivation of virus (30 minutes incubation, plaque assay); type: cell-based, Type 1, Troisbel strain; details: for log reduction at 5 µg/mL: 5 mg/l; for Virus titre (inactivation of virus): 30 minutes, control 5.4 × 10^4 (GLA-alcohol), 4.5 × 10^4 (GLA-AZT)
Method: 1. A virus solution containing 2×10^5 pfu/ml is prepared in phosphate buffered saline (Dulbecco's A).
2. The compound to be tested is made up in Dulbecco's medium A in a suitable range of dilutions.
3. Equal volumes of the virus and drug solution are mixed together. Control solutions without drug are also used.
4. The virus and drug are incubated for an appropriate period of time, in this example, thirty minutes.
5. The numbers of active viral particles in the solution are assayed as in items 4 and 5 under A.
The results are shown below (Table 6). In the Table, the figures are concentrations of viral particles present after incubation of the virus for 30 minutes with solutions of the drugs.

[3] = system: HTLV-IIIB; experiment: Anti-HIV activity assay, HTLV-IIIB (MT-4 cells, MTT method); type: cell-based; details: for Selectivity index (SI): CD50/ED50, HTLV-IIIB; for EC50: Human immunodeficiency virus 1, MT4, 120 h, MT-4 cells, five days, HTLV-IIIB, read-out: ED50 (50% effective dose)
Method: (§1) Results in relation to HIV virus were obtained by the method of Pauwels et al, Journal of Virological Methods 20, 309 to 321 (1988), as follows:
(§2) MT-4 cells (2.5×10^4 /well) were infected with HIV (100 CCID50) and incubated in the presence of varying concentrations of the test compounds (added immediately after virus infection). After five days incubation at 37° C. in a CO2 incubator, the number of viable cells was assessed by the MTT (tetrazolium) method. Anti-viral activity and cytotoxicity of the compounds are expressed as ED50 (50% effective dose) and CD50 (50% cytotoxic dose), respectively. SI (selectivity index=CD50 /ED50.
(§3) These are given in Table 8 and Table 9 below in relation to HTLV-IIIB and LAV-2ROD viruses.

[4] = system: LAV-2ROD; experiment: Anti-HIV activity assay, LAV-2ROD (MT-4 cells, MTT method); type: cell-based; details: for Selectivity index (SI): CD50/ED50, LAV-2ROD; for EC50: MT4, 120 h, MT-4 cells, five days, LAV-2ROD, read-out: ED50 (50% effective dose)
Method: as §1, §2, §3

[5] = in vitro; type: cell-based; details: human, mt-4 cells, CD50 (50% cytotoxic dose)
Method: as §1, §2

[6] = system: MT-4 cells; experiment: in vitro; type: cell-based; details: human, 120 h
Method: as §1, §2

[7] = Human alphaherpesvirus 1, 0.5 h, 1 mg/l, read-out: Inactivation of virus (log10 reduction in virus titre)
[8] = Human alphaherpesvirus 1, 0.5 h, read-out: Inactivation of virus (log10 reduction in virus titre)
[9] = Human alphaherpesvirus 1, BHK-21, 24 h, read-out: Inhibition of viral replication (log10 reduction in virus titre)
[10] = Human alphaherpesvirus 1, BHK-21, 24 h, 1 mg/l, read-out: Inhibition of viral replication (log10 reduction in virus titre)

Compound	Inhibition of herpes virus replication (in words) [1]	Virucidal activity / inactivation of herpes virus (in words) [2]	log reduction at 1 µg/mL [2, 7]	log reduction at 5 µg/mL [2, 8]	Selectivity index (SI) [3]	EC50 [3] [mg/L]	Selectivity index (SI) [4]	EC50 [4] [mg/L]	CC50 at 120 h [5] [mg/L]	CD50 (50% cytotoxic dose) [6] [µg/mL]	% in chloroform phase (partition co-efficients, water/chloroform) [%]	log reduction at 1 µg/mL [1, 10]	also measured
CCCCC/C=C\C/C=C\CCCCCCCC(=O)OC[C@H]1O[C@@H](n2cc(C)c(=O)[nH]c2=O)C[C@@H]1N=[N+]=[N-] [AK 2]	to inhibit its replication	virucidal	2.2	2.8	26008	0.000365 (≈ 0.000689 µM)	7999	0.000744 (≈ 0.0014 µM)	9.49 (≈ 17.9 µM)	5.9512	> 99	–	Inhibition of viral replication (in words) [1]: no inhibition; Virucidal activity / inactivation of herpes virus (in words) ([2]; listed as AZT-LA): able both to inactivate the herpes virus
CCCCC/C=C\C/C=C\C/C=C\CCCCC(=O)OC[C@H]1O[C@@H]2C[C@H]1Oc1nc(=O)c(C)cn12 [AK 3, GLA - Anhydrothymidine]	–	virucidal	2.7	–	< 1	> 40	< 1	> 40	17.7 (≈ 36.6 µM)	16.8593	> 98	–	log reduction at 25 µg/mL ([1]; Human alphaherpesvirus 1, BHK-21, 24 h, 25 mg/l, read-out: Inhibition of viral replication (log10 reduction in virus titre)): 0.5; log reduction at 50 µg/mL ([1]; Human alphaherpesvirus 1, BHK-21, 24 h, 50 mg/l, read-out: Inhibition of viral replication (log10 reduction in virus titre)): 0.9; log reduction at 100 µg/mL ([1]; Human alphaherpesvirus 1, BHK-21, 24 h, 100 mg/l, read-out: Inhibition of viral replication (log10 reduction in virus titre)): 1.2; log reduction at 0.5 µg/mL ([2]; Human alphaherpesvirus 1, 0.5 h, 0.5 mg/l, read-out: Inactivation of virus (log10 reduction in virus titre)): 1.6
CCCCC/C=C\C/C=C\CCCCCCCC(=O)OC[C@H]1O[C@@H]2C[C@H]1Oc1nc(=O)c(C)cn12 [AK 4]	–	virucidal	2.75	2.9	< 1	> 40	< 1	> 40	18.2 (≈ 37.3 µM)	17.4332	> 99	–	Inhibition of viral replication (in words) [1]: no inhibition
CCCCC/C=C\C/C=C\C/C=C\CCCCC(=O)Nc1nc2c(ncn2COCCOC(=O)CCCC/C=C\C/C=C\C/C=C\CCCCC)c(=O)[nH]1 [AK 10, digamma-linolenyl acyclovir]	very effective	virucidal; also recorded: very effective	0.94	1.54	< 1	> 8	< 1	> 40	–	–	> 99	1.13	log reduction at 0.1 µg/mL [1, 9]: 0.45; log reduction at 0.5 µg/mL ([1]; Human alphaherpesvirus 1, BHK-21, 24 h, 0.5 mg/l, read-out: Inhibition of viral replication (log10 reduction in virus titre)): 0.86; log reduction at 1 µg/mL ([1]; Human alphaherpesvirus 1, BHK-21, 24 h, 1 mg/liter solution, read-out: Reduction of virus replication, log): 1; inhibition at 1 µg/mL ([1]; Human alphaherpesvirus 1, BHK-21, 24 h, 1 mg/liter solution, read-out: Reduction of virus replication, percent): 90%; log reduction at 1 µg/mL ([2]; Human alphaherpesvirus 1, 0.5 h, 1 mg/liter solution, read-out: Inactivation of virus, log): 1; killing at 1 µg/mL ([2]; Human alphaherpesvirus 1, 0.5 h, 1 mg/liter solution, read-out: Inactivation of virus, percent): 90%
CCCCC/C=C\C/C=C\CCCCCCCC(=O)Nc1nc2c(ncn2COCCOC(=O)CCCCCCC/C=C\C/C=C\CCCCC)c(=O)[nH]1 [AK 11]	very effective	virucidal; also recorded: very effective	0.15	1.55	< 1	> 40	< 1	> 40	13.1 (≈ 17.5 µM)	10.1674	> 99	1.69	log reduction at 5 µg/mL ([1]; Human alphaherpesvirus 1, BHK-21, 24 h, 5 mg/l, read-out: Inhibition of viral replication (log10 reduction in virus titre)): 2.46
CCCCC/C=C\C/C=C\C/C=C\CCCCC(=O)Nc1nc2c(ncn2COCCO)c(=O)[nH]1 [AK 12]	–	virucidal	0.6	1.4	–	–	–	–	–	–	–	3.9	log reduction at 0.1 µg/mL [1, 9]: 1.9
CCCCC/C=C\C/C=C\CCCCCCCC(=O)Nc1nc2c(ncn2COCCO)c(=O)[nH]1 [AK 13]	–	virucidal	1.3	1.8	–	–	–	–	–	–	–	4.3	log reduction at 0.1 µg/mL [1, 9]: 2.45
CCCCC/C=C\C/C=C\C/C=C\CCCCC(=O)OC[C@@H]1C=C[C@H](n2cc(C)c(=O)[nH]c2=O)O1 [AK 14]	–	–	–	–	134	0.076 (≈ 0.157 µM)	110	0.08 (≈ 0.165 µM)	10.3 (≈ 21.2 µM)	8.84	–	–	–
CCCCC/C=C\C/C=C\CCCCCCCC(=O)OC[C@@H]1C=C[C@H](n2cc(C)c(=O)[nH]c2=O)O1 [AK 15]	–	–	–	–	256	0.064 (≈ 0.132 µM)	378	0.064 (≈ 0.132 µM)	16.5 (≈ 33.9 µM)	24.23	–	–	–
Cc1cn([C@H]2C=C[C@@H](CO)O2)c(=O)[nH]c1=O [AK 16, dideoxy-didehydro thymidine, reference compound]	–	–	–	–	574	0.077 (≈ 0.343 µM)	1196	0.039 (≈ 0.174 µM)	44.4 (≈ 198 µM)	46.65	–	–	–
CCCCC/C=C\C/C=C\C/C=C\CCCCCO [GLA alcohol, reference compound]	no effect at all	able to inactivate the herpes simplex virus	–	–	–	–	–	–	–	–	–	–	Virus titre (inactivation of virus) ([2]; 5 μg/ml): 3.0 × 10^3; Virus titre (inactivation of virus) ([2]; 10 μg/ml): 2.2 × 10^2; Virus titre (inactivation of virus) ([2]; 25 μg/ml): < 1.0 × 10^2
CCCCC/C=C\C/C=C\CCCCCCCC(=O)O [LA, linoleic acid, reference compound]	completely unable to inhibit viral replication	active at concentrations comparable to GLA; also recorded: same effect in inactivating the herpes virus	–	–	–	–	–	–	–	–	–	–	–
